Measured values published in patent US11261175B2 (priority 2017, dated 2022).

Experiments:
Assay type in all cases: cell-based
[1] = tested on: HCV genotype 1b replicon with NS5A L31V mutation; assay: Transiently transfected assay of genotype 1b resistance mutant RNA L31V; conditions: Hepatitis C virus, Huh-7.5.1, 72 h, read-out: HCV Mutation L31V
Summary of the method: (§1)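 Huh7.5.1 cells were electroporated with in vitro-transcribed, ScaI-linearized replicon RNAs carrying the Daclatasvir-resistance substitutions, then seeded 4 h later into DMEM with serially diluted compound. After 3 days, intracellular luciferase activity was read and normalized to mock-treated cells.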

[2] = tested on: HCV replicon NK5.1-Gluc (genotype 1b); assay: Anti-HCV activity using HCV replicon NK5.1-Gluc (genotype 1b) in Huh 7.5.1 cells, luciferase readout; conditions: Hepatitis C virus, 72 h; Huh 7.5.1 cells with NK5.1-Gluc replicon, 3 days, Gaussia luciferase; read-out: HCV wt. GT-1b
[3] = tested on: HCV genotype 1b replicon with NS5A L31V+Y93H (double mutant); assay: Transiently transfected assay of genotype 1b resistance mutant RNA L31V+Y93H (double mutant); conditions: Hepatitis C virus, Huh-7.5.1, 72 h, read-out: HCV Mutation L31V + Y93H
Summary of the method: as §1

[4] = tested on: HCV replicon S52-Feo (genotype 3a); assay: Anti-HCV activity using HCV replicon S52-Feo (genotype 3a) in Huh 7.5.1 cells, luciferase readout; conditions: Hepatitis C virus, 72 h; Huh 7.5.1 cells with S52-Feo replicon, 3 days, firefly luciferase; read-out: HCV wt. GT-3a
[5] = tested on: HCV genotype 1b replicon with NS5A Y93H mutation; assay: Transiently transfected assay of genotype 1b resistance mutant RNA Y93H; conditions: Hepatitis C virus, Huh-7.5.1, 72 h, read-out: HCV Mutation Y93H
Summary of the method: as §1

[6] = tested on: JFH5a-Rluc-ad34 virus (HCV GT-2a); assay: Anti-HCV activity using HCVcc (JFH5a-Rluc-ad34 virus) in Huh 7.5.1 cells, Renilla luciferase readout; conditions: Hepatitis C virus, GT2A, Huh-7.5.1, 72 h, read-out: HCV wt. GT-2a
Summary of the method: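 Huh 7.5.1 cells were inoculated with JFH5a-Rluc-ad34, a JFH1-derived virus with adaptive E2/p7 mutations, for 4 h before serially diluted compound was added. Intracellular Renilla luciferase was read after three days and normalized to mock-treated controls.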

SMILES | EC50 [1] | EC50 [2] | EC50 [3] | EC50 [4] | EC50 [5] | EC50 [6]
CCCCC1(CCCC)c2cc(NC(=O)[C@@H]3C[C@H]4CCC[C@H]4N3C(=O)[C@H](NC(=O)OC)c3ccccc3)ccc2-c2ccc(NC(=O)[C@@H]3C[C@H]4CCC[C@H]4N3C(=O)[C@H](NC(=O)OC)c3ccccc3)cc21 [Example 22, dimethyl ((1R,1′R)-((2S,2′S,3aR,3a′R,6aR,6a′R)-(((9,9-dibutyl-9H-fluorene-2,7-diyl)bis(azanediyl))bis(carbonyl))bis(hexahydrocyclopenta[b]pyrrole-2,1(2H)-diyl))bis(2-oxo-1-phenylethane-2,1-diyl))dicarbamate] | 1 to 10 pM | 1 to 10 pM | > 100000 pM | 10 to 100 pM | 10 to 100 pM | 1000 to 100000 pM
CCCCC1(CCCC)c2cc(NC(=O)[C@@H]3CC4(CC4)CN3C(=O)[C@H](NC(=O)OC)c3ccccc3)ccc2-c2ccc(NC(=O)[C@@H]3C[C@H]4CCC[C@H]4N3C(=O)[C@H](NC(=O)OC)c3ccccc3)cc21 [Example 25, methyl ((R)-2-((S)-6-((9,9-dibutyl-7-((2S,3aR,6aR)-1-((R)-2-((methoxycarbonyl)amino)-2-phenylacetyl)octahydrocyclopenta[b]pyrrole-2-carboxyamido)-9H-fluorene-2-yl)carbamoyl)-5-azaspiro[2.4]heptane-5-yl)-2-oxo-1-phenylethyl)carbamate] | 1 to 10 pM | 1 to 10 pM | 1000 to 100000 pM | 10 to 100 pM | 1000 to 100000 pM | 1000 to 100000 pM
CCCCC1(CCCC)c2cc(NC(=O)[C@@H]3CC4(CC4)CN3C(=O)[C@H](NC(=O)OC)c3ccccc3)ccc2-c2ccc(-c3cnc([C@@H]4CCCN4C(=O)[C@@H](NC(=O)OC)C(C)C)[nH]3)cc21 [Example 26, methyl ((S)-1-((S)-2-(5-(9,9-dibutyl-7-((S)-5-((R)-2-((methoxycarbonyl)amino)-2-phenylacetyl)-5-azaspiro[2.4]heptane-6-carboxyamido)-9H-fluorene-2-yl)-1H-imidazole-2-yl)pyrrolidine-1-yl)-3-methyl-1-oxobutane-2-yl)carbamate] | 10 to 100 pM | 1 to 10 pM | > 100000 pM | 10 to 100 pM | 100 to 1000 pM | 10 to 100 pM
CCCC1(CCC)c2cc(NC(=O)[C@@H]3CC4(CN3C(=O)[C@H](NC(=O)OC)c3ccccc3)OCCO4)ccc2-c2ccc(-c3cnc([C@@H]4CCCN4C(=O)[C@@H](NC(=O)OC)C(C)C)[nH]3)cc21 [Example 27, methyl ((S)-1-((S)-2-(5-(7-((S)-7-((R)-2-((methoxycarbonyl)amino)-2-phenylacetyl)-1,4-dioxa-7-azaspiro[4.4]nonane-8-carboxyamido)-9,9-dipropyl-9H-fluorene-2-yl)-1H-imidazole-2-yl)pyrrolidine-1-yl)-3-methyl-1-oxobutane-2-yl)carbamate] | 1 to 10 pM | 1 to 10 pM | 1000 to 100000 pM | 10 to 100 pM | 1 to 10 pM | 10 to 100 pM
CCCCC1(CCCC)c2cc(NC(=O)[C@@H]3C[C@H]4CCC[C@H]4N3C(=O)[C@H](NC(=O)OC)c3ccccc3)ccc2-c2ccc(-c3cnc([C@@H]4CCCN4C(=O)[C@@H](NC(=O)OC)C(C)C)[nH]3)cc21 [Example 28, methyl ((S)-1-((S)-2-(5-(9,9-dibutyl-7-((2S,3aR,6aR)-1-((R)-2-((methoxycarbonyl)amino)-2-phenylacetyl)octahydrocyclopenta[b]pyrrole-2-carboxyamido)-9H-fluorene-2-yl)-1H-imidazole-2-yl)pyrrolidine-1-yl)-3-methyl-1-oxobutane-2-yl)carbamate] | 10 to 100 pM | 1 to 10 pM | > 100000 pM | 10 to 100 pM | 100 to 1000 pM | 10 to 100 pM
CCCCC1(CCCC)c2cc(NC(=O)[C@@H]3C[C@@H](O)CN3C(=O)[C@H](NC(=O)OC)c3ccccc3)ccc2-c2ccc(NC(=O)[C@@H]3C[C@@H](O)CN3C(=O)[C@H](NC(=O)OC)c3ccccc3)cc21 [Example 29, dimethyl ((1R,1′R)-((3R,3′R,5S,5′S)-(((9,9-dibutyl-9H-fluorene-2,7-diyl)bis(azanediyl))bis(carbonyl))bis(3-hydroxypyrrolidine-5,1-diyl))bis(2-oxo-1-phenylethane-2,1-diyl))dicarbamate] | 10 to 100 pM | 1 to 10 pM | 10 to 100 pM | 10 to 100 pM | 10 to 100 pM | 100 to 1000 pM
CCC1(CC)c2cc(NC(=O)[C@@H]3CCCN3C(=O)[C@H](NC(=O)OC)c3ccccc3)ccc2-c2ccc(NC(=O)[C@@H]3CCCN3C(=O)[C@H](NC(=O)OC)c3ccccc3)cc21 [Example 30, dimethyl (1R,1′R)-2,2′-((2S,2′S)-2,2′-(9,9-diethyl-9H-fluorene-2,7-diyl)bis(azanediyl)bis(oxomethylene)bis(pyrrolidine-2,1-diyl))bis(2-oxo-1-phenylethane-2,1-diyl)dicarbamate] | 100 to 1000 pM | 10 to 100 pM | > 100000 pM | 100 to 1000 pM | 1000 to 100000 pM | 100 to 1000 pM
CCCCC1(CCCC)c2cc(NC(=O)[C@@H]3C[C@@H](O)CN3C(=O)[C@H](NC(=O)OC)c3ccccc3)ccc2-c2ccc(-c3cnc([C@@H]4CCCN4C(=O)[C@@H](NC(=O)OC)C(C)C)[nH]3)cc21 [Example 31, methyl((S)-1-((S)-2-(5-(9,9-dibutyl-7-((2S,4R)-4-hydroxy-1-((R)-2-((methoxycarbonyl)amino)-2-phenylacetyl)pyrrolidine-2-carboxyamido)-9H-fluorene-2-yl)-1H-imidazole-2-yl)pyrrolidine-1-yl)-3-methyl-1-oxobutane-2-yl)carbamate] | 100 to 1000 pM | 10 to 100 pM | 1000 to 100000 pM | 100 to 1000 pM | 10 to 100 pM | 100 to 1000 pM
CCCCC1(CCCC)c2cc(NC(=O)[C@@H]3C[C@@H](OC(=O)C(C)C)CN3C(=O)[C@H](NC(=O)OC)c3ccccc3)ccc2-c2ccc(NC(=O)[C@@H]3C[C@@H](OC(=O)C(C)C)CN3C(=O)[C@H](NC(=O)OC)c3ccccc3)cc21 [Example 32, (3R,3′R,5S,5′S,52R)-5,5′-(9,9-dibutyl-9H-fluorene-2,7-diyl)bis(azanediyl)bis(oxomethylene)bis(1-((R)-2-(methoxycarbonylamino)-2-phenylacetyl)pyrrolidine-5,3-diyl) bis(2-methylpropanoate)] | 10 to 100 pM | 1 to 10 pM | 10 to 100 pM | 10 to 100 pM | 10 to 100 pM | 100 to 1000 pM
CCCCC1(CCCC)c2cc(NC(=O)[C@@H]3C[C@@H](OC(=O)CN4CCOCC4)CN3C(=O)[C@H](NC(=O)OC)c3ccccc3)ccc2-c2ccc(NC(=O)[C@@H]3C[C@@H](OC(=O)CN4CCOCC4)CN3C(=O)[C@H](NC(=O)OC)c3ccccc3)cc21 [Example 33, (3R,3′R,5S,5S,52R)-5,5′-(9,9-dibutyl-9H-fluorene-2,7-diyl)bis(azanediyl)bis(oxomethylene)bis(1-((R)-2-(methoxycarbonylamino)-2-phenylacetyl)pyrrolidine-5,3-diyl) bis(2-morpholinoacetate)] | 10 to 100 pM | 10 to 100 pM | 100 to 1000 pM | 100 to 1000 pM | 10 to 100 pM | 100 to 1000 pM
